Test results published in ChEMBL document CHEMBL3217405, “Methanocarba ring as a ribose modification in ligands of G protein-coupled purine and pyrimidine receptors: synthetic approaches” (Medchemcomm, 2013).

Tests used:
[1] = target: Adenosine receptors; A1 & A3 (Homo sapiens) (UniProt P30542+P0DMS8); test: Selectivity ratio of adenosine A3 receptor (unknown origin) over adenosine A1 receptor (unknown origin)
[2] = target: T1, Adenosine receptor A3 (Homo sapiens, UniProt P0DMS8); test: Agonist activity at adenosine A3 receptor (unknown origin) assessed as stimulation of [35S]GTPgammaS binding; type: functional
T1 sequence (P0DMS8 whole entry): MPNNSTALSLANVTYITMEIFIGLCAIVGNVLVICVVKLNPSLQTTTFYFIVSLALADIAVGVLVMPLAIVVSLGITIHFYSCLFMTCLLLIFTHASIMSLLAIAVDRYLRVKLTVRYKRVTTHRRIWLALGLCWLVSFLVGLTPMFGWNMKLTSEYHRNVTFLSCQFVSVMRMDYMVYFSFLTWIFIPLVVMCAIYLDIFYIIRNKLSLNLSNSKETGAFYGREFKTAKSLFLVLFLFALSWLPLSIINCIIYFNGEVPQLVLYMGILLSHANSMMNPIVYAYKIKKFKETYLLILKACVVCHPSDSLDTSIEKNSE

[3] = target: T1, Adenosine receptor A3; test: Binding affinity to adenosine A3 receptor (unknown origin)

| Selectivity ratio [1] | EC50 [2] [µM] | SMILES | also measured |
| --- | --- | --- | --- |
| 39 |  | CNc1nc(Cl)nc2c1ncn2[C@H]1[C@H](O)[C@H](O)[C@]2(CO)C[C@H]12 |  |
|  | < 0.001 | OC[C@@]12C[C@@H]1[C@@H](n1cnc3c(NCc4cccc(I)c4)nc(Cl)nc31)[C@H](O)[C@@H]2O |  |

Further lines, the compound ahead of its results:

| SMILES | Selectivity ratio [1] | EC50 [2] [µM] | also measured |
| --- | --- | --- | --- |
| CNc1ncnc2c1ncn2[C@H]1[C@H](O)[C@H](O)[C@]2(CO)C[C@H]12 | 12 |  |  |
| OC[C@@]12C[C@@H]1[C@@H](n1cnc3c(NCc4cccc(I)c4)ncnc31)[C@H](O)[C@@H]2O |  | < 0.001 |  |
| O=P(O)(OC[C@@]12C[C@@H]1[C@@H](n1cnc3c(O)ncnc31)[C@H](O)[C@@H]2O)OP(=O)(O)OC[C@@]12C[C@@H]1[C@@H](n1cnc3c(O)ncnc31)[C@H](O)[C@@H]2O |  |  | Ki [3]: 22 µM |
| CNC(=O)[C@@]12C[C@@H]1[C@@H](n1cnc3c(NC)nc(Cl)nc31)[C@H](O)[C@@H]2O | 130 |  |  |
